Data taken from US7018836B1, “P-TEFb compositions, methods and screening assays” (priority 1996, dated 2006).

Columns and labels:
Drosophila TFIIH = assay: CTD kinase assay with Drosophila TFIIH; format: biochemical; settings: 20 μM DRB
Description: 0.4 μl of purified RNA polymerase II and various protein samples were mixed in 18 μl of 55 mM HMK. The reaction was then initiated by the addition of 2 μl of a solution containing 2 μCi of [γ-^32P]ATP (ICN) and unlabeled ATP at 10 μM, or only unlabeled ATP at concentrations from 1 to 100 μM or other NTPs or dNTPs at concentrations of 1 to 100 μM. Reactions were incubated for the indicated times at 23° C. and then terminated with SDS loading buffer. Samples were analyzed on a 6–15% SDS polyacrylamide gel which was silver stained, dried and subjected to autoradiography if the assay contained label.
To determine whether P-TEFb was related to the protein kinase associated with TFIIH (Roy et al., 1994; Feaver et al., 1994; Cismowski et al., 1995; Serizawa et al., 1995; Shiekhattar et al., 1995), P-TEFb was compared with Drosophila TFIIH purified from Drosophila embryos by the method of Austin and Biggin (1996).

[1] = test system: CTD kinase found in the preinitiation complex; assay: Phosphorylation of RNA polymerase II in isolated preinitiation complexes (western blot); format: biochemical, Drosophila; settings: 20 μM DRB
Description: Preinitiation complexes were formed on an immobilized actin template digested with HpaII (780 nt runoff) as described in Marshall and Price (Marshall and Price, 1992). The preinitiation complexes were isolated, washed once with 55 mM HKB (20 mM HEPES, 55 mM KCl and 200 μg/ml BSA) and resuspended into 55 mM HKB. Transcription was initiated by the addition of a pulse solution, which contained 5 μCi of [α-^32P]CTP and brought the reaction mixture to 600 μM in ATP, GTP and UTP and 2 mM MnCl2. MnCl2 increased the rate of initiation of preinitiation complexes, thereby, increasing the number of polymerases in early elongation complexes after a short pulse. After 15 seconds the reaction was stopped by the addition of EDTA to 10 mM.
Preinitiation complexes were formed on an immobilized actin template as described above in Methods, Section 3. […] Incubation of the preinitiation complexes with ATP caused a significant shift of the polymerase to the IIo form. The antibodies used to detect the large subunit of RNA polymerase II reacted more strongly with the […] of the large subunit than either the phosphorylated IIo form or the truncated IIb form. This phosphorylation was unaffected by the presence of 20 μM DRB.

P-TEFb = assay: Phosphorylation by P-TEFb of RNA polymerase II in high salt washed early elongation complexes (western blot); format: biochemical, Drosophila; settings: 20 μM DRB
[2] = test system: runoff transcription from HIV-1 LTR in HNE (human P-TEFb); assay: Transcription of HIV LTR template in HeLa nuclear extract (HNE), 633-nt runoff (FIG. 7A); format: biochemical; settings: for IC50: HNE, HIV LTR template, read-out: 50% inhibition point, transcription assay
Description: (§1) The transcription template (Nco I-digested pLTR-4/CAT vector containing the HIV-1 LTR from −153 to +80) was used in a pulse-chase transcription experiment. Reactions (12 μl total; 20 mM HEPES, pH 7.6, 7 mM MgCl2, 20 μg/ml DNA template, 3 μl HNE, 64 mM KCl, with 50 μM DRB or 0.3 μl Drosophila P-TEFb (Marshall et al., 1996) as indicated) were pre-incubated for 20 minutes at 30° C., pulsed for 2 minutes by adding ATP, GTP, UTP to 600 μM each and 5 μCi [α-^32P]CTP (˜0.1 mM), and chased for 5 minutes by adding CTP to 1.2 mM. Reactions were stopped, phenol extracted and analyzed on a 6% polyacrylamide gel as described (Marshall and Price, 1995). pLTR-TAR-Luc and pLTR-DTAR-Luc plasmids were digested with Eco RI to generate TAR and DTAR template that were used in the studies. The TAR template contains HIV-1 LTR from −475 to +76, while the DTAR template contains HIV-1 LTR from −475 to +19. Transcription with TAR and DTAR templates generates runoffs of 694 and 646 nucleotides, respectively. The transcription reaction mix contained 20 mM HEPES (pH7.6), 7 mM MgCl2, 60 mM KCl, 0.5 μl HNE (or depHNE as indicated), 20 μg/ml TAR template (or DTAR template as indicated), indicated amount of HIV-1 Tat (86 residue HIV-1 Tat followed by a streptavidin binding tag at its carboxyl terminus) and DRB. The reaction mix was pre-incubated for 15 minutes at 30° C. and the transcription was started by adding nucleotides to final concentrations of 50 μM ATP, 50 μM GTP, 50 μM UTP, 10 μM CTP, and 5 μCi [α-^32P]CTP (˜0.1 mM), and continuously labeled for 20 minutes, or by adding nucleotides to final concentrations of 50 μM ATP, 50 μM GTP, 50 μM UTP, and 5 μCi [α-^32P]CTP (˜0.1 mM), and pulsed for 2 minutes. The reactions were stopped and reaction mix were phenol-extracted. The transcripts were then analyzed on a 6% polyacrylamide gel as described (Marshall and Price, 1995).

[3] = test system: transcription from HIV-1 LTR; assay: In vitro Tat transactivation in HNE with TAR and DTAR templates (FIG. 8); format: biochemical, human
Description: as §1, with “The reaction mix was pre-incubated for 15 minutes at 30° C. and the transcription was started by adding nucleotides to final concentrations of 50 μM ATP, 50 μM GTP, 50 μM UTP, 10 μM CTP, and 5 μCi [α-^32P]CTP (˜0.1 mM), and continuously labeled for 20 minutes, or by adding nucleotides to final concentrations of 50 μM ATP, 50 μM GTP, 50 μM UTP, and 5 μCi [α-^32P]CTP (˜0.1 mM), and pulsed for 2 minutes. The reactions were stopped and reaction mix were phenol-extracted.” left out

[4] = test system: mammalian cells in culture; settings: DRB added to mammalian cells in culture; cited from earlier work

SMILES	sensitivity of CTD kinase activity of TFIIH (Drosophila TFIIH)	phosphorylation of RNA polymerase II to IIo in preinitiation complexes incubated with ATP [1]	ability of P-TEFb to phosphorylate RNA polymerase II in an early elongation complex (P-TEFb)	IC50 [2]	effect of DRB on Tat-stimulated runoff ([3]; 50 μM DRB)	sensitivity to DRB of the effect of Tat on initiation ([3]; pulse-only protocol)	inhibition in the production of mature mRNA [4]	ratio of 50% inhibition points (H-8/DRB), transcription assay [2]
OC[C@H]1O[C@@H](n2cnc3cc(Cl)c(Cl)cc32)[C@H](O)[C@@H]1O [DRB, 5,6-dichloro-1-β-D-ribofuranosylbenzimidazole]	unaffected	unaffected	inhibited	1 µM	mostly inhibited	not sensitive	95%	
CNCCNS(=O)(=O)c1cccc2cnccc12 [H-8]				23 µM				23
